Test results published in the OligoGym collection.
Oligonucleotides are written 5' to 3', each unit as a sugar letter and its base; * is a phosphorothioate linkage, no mark a phosphodiester; rarer units and linkages stand in square brackets, end groups in braces. Plain capitals give the bases only. Oligonucleotides are given in HELM: sugar(base)linkage, 5' to 3'; d 2'-deoxyribose, r ribose, m 2'-O-methylribose, p phosphate. ss, as = sense and antisense strand; d = 2'-deoxy (DNA); r = 2'-OH (RNA)
Also: test concentration or dose not given here.

These substances were tested against CDC34 (assay: reporter assay of Huesken 2005). Settings: siRNA.
“RNA1{r(G)p.r(C)p.r(G)p.r(A)p.r(U)p.r(C)p.r(U)p.r(A)p.r(U)p.r(A)p.r(C)p.r(A)p.r(A)p.r(C)p.r(U)p.r(G)p.r(G)p.r(G)p.r(A)p.d(T)p.d(T)}|RNA2{r(U)p.r(C)p.r(C)p.r(C)p.r(A)p.r(G)p.r(U)p.r(U)p.r(G)p.r(U)p.r(A)p.r(U)p.r(A)p.r(G)p.r(A)p.r(U)p.r(C)p.r(G)p.r(C)p.d(C)p.d(C)}$$$RNA1{StrandType:ss}|RNA2{StrandType:as}$” gave a normalised inhibition (eCFP-eYFP dual reporter) of 74%.
With “RNA1{r(G)p.r(C)p.r(G)p.r(C)p.r(C)p.r(U)p.r(C)p.r(A)p.r(A)p.r(G)p.r(U)p.r(U)p.r(C)p.r(C)p.r(C)p.r(C)p.r(A)p.r(U)p.r(C)p.d(T)p.d(T)}|RNA2{r(G)p.r(A)p.r(U)p.r(G)p.r(G)p.r(G)p.r(G)p.r(A)p.r(A)p.r(C)p.r(U)p.r(U)p.r(G)p.r(A)p.r(G)p.r(G)p.r(C)p.r(G)p.r(C)p.d(G)p.d(C)}$$$RNA1{StrandType:ss}|RNA2{StrandType:as}$” the normalised inhibition (eCFP-eYFP dual reporter) was 58%.
Substance “RNA1{r(G)p.r(C)p.r(U)p.r(G)p.r(C)p.r(C)p.r(C)p.r(U)p.r(C)p.r(A)p.r(G)p.r(A)p.r(G)p.r(A)p.r(G)p.r(G)p.r(U)p.r(G)p.r(G)p.d(T)p.d(T)}|RNA2{r(C)p.r(C)p.r(A)p.r(C)p.r(C)p.r(U)p.r(C)p.r(U)p.r(C)p.r(U)p.r(G)p.r(A)p.r(G)p.r(G)p.r(G)p.r(C)p.r(A)p.r(G)p.r(C)p.d(T)p.d(C)}$$$RNA1{StrandType:ss}|RNA2{StrandType:as}$” has a normalised inhibition (eCFP-eYFP dual reporter) of 39.3%.
“RNA1{r(G)p.r(G)p.r(A)p.r(A)p.r(G)p.r(C)p.r(A)p.r(G)p.r(G)p.r(U)p.r(C)p.r(C)p.r(U)p.r(G)p.r(G)p.r(G)p.r(G)p.r(A)p.r(C)p.d(T)p.d(T)}|RNA2{r(G)p.r(U)p.r(C)p.r(C)p.r(C)p.r(C)p.r(A)p.r(G)p.r(G)p.r(A)p.r(C)p.r(C)p.r(U)p.r(G)p.r(C)p.r(U)p.r(U)p.r(C)p.r(C)p.d(G)p.d(G)}$$$RNA1{StrandType:ss}|RNA2{StrandType:as}$” showed a normalised inhibition (eCFP-eYFP dual reporter) of 58.4%.
“RNA1{r(G)p.r(G)p.r(A)p.r(A)p.r(G)p.r(G)p.r(A)p.r(U)p.r(C)p.r(G)p.r(G)p.r(G)p.r(A)p.r(G)p.r(U)p.r(A)p.r(C)p.r(A)p.r(C)p.d(T)p.d(T)}|RNA2{r(G)p.r(U)p.r(G)p.r(U)p.r(A)p.r(C)p.r(U)p.r(C)p.r(C)p.r(C)p.r(G)p.r(A)p.r(U)p.r(C)p.r(C)p.r(U)p.r(U)p.r(C)p.r(C)p.d(C)p.d(C)}$$$RNA1{StrandType:ss}|RNA2{StrandType:as}$” showed a normalised inhibition (eCFP-eYFP dual reporter) of 56.5%.
With “RNA1{r(G)p.r(G)p.r(A)p.r(G)p.r(U)p.r(A)p.r(C)p.r(A)p.r(C)p.r(A)p.r(G)p.r(A)p.r(C)p.r(A)p.r(U)p.r(C)p.r(A)p.r(U)p.r(C)p.d(T)p.d(T)}|RNA2{r(G)p.r(A)p.r(U)p.r(G)p.r(A)p.r(U)p.r(G)p.r(U)p.r(C)p.r(U)p.r(G)p.r(U)p.r(G)p.r(U)p.r(A)p.r(C)p.r(U)p.r(C)p.r(C)p.d(C)p.d(G)}$$$RNA1{StrandType:ss}|RNA2{StrandType:as}$” the normalised inhibition (eCFP-eYFP dual reporter) was 76.6%.
“RNA1{r(G)p.r(G)p.r(G)p.r(C)p.r(G)p.r(G)p.r(C)p.r(U)p.r(A)p.r(C)p.r(U)p.r(U)p.r(C)p.r(A)p.r(A)p.r(G)p.r(G)p.r(C)p.r(G)p.d(T)p.d(T)}|RNA2{r(C)p.r(G)p.r(C)p.r(C)p.r(U)p.r(U)p.r(G)p.r(A)p.r(A)p.r(G)p.r(U)p.r(A)p.r(G)p.r(C)p.r(C)p.r(G)p.r(C)p.r(C)p.r(C)p.d(T)p.d(C)}$$$RNA1{StrandType:ss}|RNA2{StrandType:as}$” showed a normalised inhibition (eCFP-eYFP dual reporter) of 29.8%.
“RNA1{r(G)p.r(G)p.r(G)p.r(G)p.r(C)p.r(U)p.r(G)p.r(C)p.r(A)p.r(G)p.r(G)p.r(A)p.r(A)p.r(G)p.r(A)p.r(G)p.r(C)p.r(C)p.r(G)p.d(T)p.d(T)}|RNA2{r(C)p.r(G)p.r(G)p.r(C)p.r(U)p.r(C)p.r(U)p.r(U)p.r(C)p.r(C)p.r(U)p.r(G)p.r(C)p.r(A)p.r(G)p.r(C)p.r(C)p.r(C)p.r(C)p.d(T)p.d(T)}$$$RNA1{StrandType:ss}|RNA2{StrandType:as}$” showed a normalised inhibition (eCFP-eYFP dual reporter) of 47.6%.
Work on “RNA1{r(G)p.r(G)p.r(U)p.r(G)p.r(G)p.r(A)p.r(C)p.r(G)p.r(C)p.r(G)p.r(G)p.r(A)p.r(G)p.r(C)p.r(G)p.r(U)p.r(G)p.r(A)p.r(C)p.d(T)p.d(T)}|RNA2{r(G)p.r(U)p.r(C)p.r(A)p.r(C)p.r(G)p.r(C)p.r(U)p.r(C)p.r(C)p.r(G)p.r(C)p.r(G)p.r(U)p.r(C)p.r(C)p.r(A)p.r(C)p.r(C)p.d(T)p.d(T)}$$$RNA1{StrandType:ss}|RNA2{StrandType:as}$” yielded a normalised inhibition (eCFP-eYFP dual reporter) of 53.4%.
In the case of “RNA1{r(U)p.r(G)p.r(A)p.r(U)p.r(C)p.r(U)p.r(C)p.r(C)p.r(C)p.r(U)p.r(C)p.r(C)p.r(U)p.r(G)p.r(A)p.r(A)p.r(C)p.r(G)p.r(A)p.d(T)p.d(T)}|RNA2{r(U)p.r(C)p.r(G)p.r(U)p.r(U)p.r(C)p.r(A)p.r(G)p.r(G)p.r(A)p.r(G)p.r(G)p.r(G)p.r(A)p.r(G)p.r(A)p.r(U)p.r(C)p.r(A)p.d(C)p.d(A)}$$$RNA1{StrandType:ss}|RNA2{StrandType:as}$”, the normalised inhibition (eCFP-eYFP dual reporter) is reported as 70%.
Work on “RNA1{r(U)p.r(G)p.r(G)p.r(C)p.r(A)p.r(C)p.r(C)p.r(C)p.r(U)p.r(A)p.r(A)p.r(C)p.r(A)p.r(U)p.r(C)p.r(U)p.r(A)p.r(C)p.r(G)p.d(T)p.d(T)}|RNA2{r(C)p.r(G)p.r(U)p.r(A)p.r(G)p.r(A)p.r(U)p.r(G)p.r(U)p.r(U)p.r(A)p.r(G)p.r(G)p.r(G)p.r(U)p.r(G)p.r(C)p.r(C)p.r(A)p.d(C)p.d(A)}$$$RNA1{StrandType:ss}|RNA2{StrandType:as}$” yielded a normalised inhibition (eCFP-eYFP dual reporter) of 25.1%.
In the case of “RNA1{r(U)p.r(G)p.r(G)p.r(C)p.r(C)p.r(G)p.r(A)p.r(G)p.r(U)p.r(A)p.r(C)p.r(U)p.r(G)p.r(C)p.r(G)p.r(U)p.r(G)p.r(A)p.r(A)p.d(T)p.d(T)}|RNA2{r(U)p.r(U)p.r(C)p.r(A)p.r(C)p.r(G)p.r(C)p.r(A)p.r(G)p.r(U)p.r(A)p.r(C)p.r(U)p.r(C)p.r(G)p.r(G)p.r(C)p.r(C)p.r(A)p.d(G)p.d(C)}$$$RNA1{StrandType:ss}|RNA2{StrandType:as}$”, the normalised inhibition (eCFP-eYFP dual reporter) is reported as 65.2%.

Each substance was assayed against UBE2L3 (assay: reporter assay of Huesken 2005). Settings: siRNA.
“sense rArArArCrArArArGrArUrCrUrArUrCrArCrCrCdTdT / antisense rGrGrGrUrGrArUrArGrArUrCrUrUrUrGrUrUrUdTdA” gave a normalised inhibition (eCFP-eYFP dual reporter) of 50.1%.
“sense rArArCrCrGrArCrCrArArGrUrArArUrCrCrArGdTdT / antisense rCrUrGrGrArUrUrArCrUrUrGrGrUrCrGrGrUrUdTdT” gave a normalised inhibition (eCFP-eYFP dual reporter) of 66.6%.
With “sense rArArCrUrGrGrArArGrCrCrArGrCrArArCrCrAdTdT / antisense rUrGrGrUrUrGrCrUrGrGrCrUrUrCrCrArGrUrUdTdT” the normalised inhibition (eCFP-eYFP dual reporter) was 71.8%.
Substance “sense rArArGrCrCrArGrCrArArCrCrArArArArCrCrGdTdT / antisense rCrGrGrUrUrUrUrGrGrUrUrGrCrUrGrGrCrUrUdCdC” has a normalised inhibition (eCFP-eYFP dual reporter) of 41.7%.
“sense rArCrArUrCrGrArCrGrArArArArGrGrGrGrCrAdTdT / antisense rUrGrCrCrCrCrUrUrUrUrCrGrUrCrGrArUrGrUdTdT” was tested, and the normalised inhibition (eCFP-eYFP dual reporter) was 64.5%.
Work on “sense rArCrCrArArGrUrArArUrCrCrArGrUrCrCrCrUdTdT / antisense rArGrGrGrArCrUrGrGrArUrUrArCrUrUrGrGrUdCdG” yielded a normalised inhibition (eCFP-eYFP dual reporter) of 87.3%.
“sense rArGrArUrCrUrArUrCrArCrCrCrArArArCrArUdTdT / antisense rArUrGrUrUrUrGrGrGrUrGrArUrArGrArUrCrUdTdT” gave a normalised inhibition (eCFP-eYFP dual reporter) of 73.1%.
“sense rArGrCrArCrCrCrGrCrUrUrCrGrGrGrCrUrGrAdTdT / antisense rUrCrArGrCrCrCrGrArArGrCrGrGrGrUrGrCrUdCdA” gave a normalised inhibition (eCFP-eYFP dual reporter) of 37.6%.
Substance “sense rArGrCrCrUrGrArGrCrArCrCrCrGrCrUrUrCrGdTdT / antisense rCrGrArArGrCrGrGrGrUrGrCrUrCrArGrGrCrUdGdG” has a normalised inhibition (eCFP-eYFP dual reporter) of 46.3%.
“sense rArUrCrGrArCrGrArArArArGrGrGrGrCrArGrGdTdT / antisense rCrCrUrGrCrCrCrCrUrUrUrUrCrGrUrCrGrArUdGdT” was tested, and the normalised inhibition (eCFP-eYFP dual reporter) was 32%.
Work on “sense rArUrUrGrArCrUrUrGrGrCrArArGrGrGrCrUrUdTdT / antisense rArArGrCrCrCrUrUrGrCrCrArArGrUrCrArArUdAdA” yielded a normalised inhibition (eCFP-eYFP dual reporter) of 58.7%.
For “sense rArUrUrUrArArArArCrArArArGrArUrCrUrArUdTdT / antisense rArUrArGrArUrCrUrUrUrGrUrUrUrUrArArArUdGdT”, the normalised inhibition (eCFP-eYFP dual reporter) was 65.5%.
Substance “sense rCrArArArArCrCrGrArCrCrArArGrUrArArUrCdTdT / antisense rGrArUrUrArCrUrUrGrGrUrCrGrGrUrUrUrUrGdGdT” has a normalised inhibition (eCFP-eYFP dual reporter) of 56.2%.
Work on “sense rCrArArArGrArUrCrUrArUrCrArCrCrCrArArAdTdT / antisense rUrUrUrGrGrGrUrGrArUrArGrArUrCrUrUrUrGdTdT” yielded a normalised inhibition (eCFP-eYFP dual reporter) of 82.8%.
In the case of “sense rCrArArCrCrArArArArCrCrGrArCrCrArArGrUdTdT / antisense rArCrUrUrGrGrUrCrGrGrUrUrUrUrGrGrUrUrGdCdT”, the normalised inhibition (eCFP-eYFP dual reporter) is reported as 87%.
“sense rCrArCrCrCrGrCrUrUrCrGrGrGrCrUrGrArCrCdTdT / antisense rGrGrUrCrArGrCrCrCrGrArArGrCrGrGrGrUrGdCdT” was tested, and the normalised inhibition (eCFP-eYFP dual reporter) was 60%.
With “sense rCrArGrCrArArCrCrArArArArCrCrGrArCrCrAdTdT / antisense rUrGrGrUrCrGrGrUrUrUrUrGrGrUrUrGrCrUrGdGdC” the normalised inhibition (eCFP-eYFP dual reporter) was 60%.
In the case of “sense rCrArGrCrArGrArGrUrArCrCrCrArUrUrCrArAdTdT / antisense rUrUrGrArArUrGrGrGrUrArCrUrCrUrGrCrUrGdGdA”, the normalised inhibition (eCFP-eYFP dual reporter) is reported as 90%.
In the case of “sense rCrArGrCrCrUrGrArGrCrArCrCrCrGrCrUrUrCdTdT / antisense rGrArArGrCrGrGrGrUrGrCrUrCrArGrGrCrUrGdGdG”, the normalised inhibition (eCFP-eYFP dual reporter) is reported as 37.1%.
In the case of “sense rCrArGrGrUrUrGrArUrGrArArGrCrUrArArUrUdTdT / antisense rArArUrUrArGrCrUrUrCrArUrCrArArCrCrUrGdGdA”, the normalised inhibition (eCFP-eYFP dual reporter) is reported as 96.7%.
“sense rCrArUrArGrCrArCrUrGrGrUrGrArArUrGrArCdTdT / antisense rGrUrCrArUrUrCrArCrCrArGrUrGrCrUrArUrGdAdG” showed a normalised inhibition (eCFP-eYFP dual reporter) of 80.9%.
